Laboratory results published in patent US20250288583A1, “Treatment of Mucus Hypersecretion” (priority 2024, published 2025).
pEC50: −log10 of the molar value.

Key:
[1] = biological target: T1, TRPV1 (Homo sapiens, UniProt Q8NER1); test: TRPV1 specificity assay in transfected cells; format: cell-based; settings: FIG. 5; capsaicin positive control
T1 construct: expressed in transfected cells

[2] = biological target: T2, hTRPM8 channel (Homo sapiens, UniProt Q7Z2W7); test: TRPM8 receptor assay, calcium entry (Fluo-8, FLIPR) in transfected CHO cells; format: cell-based; settings: for Potency Relative to L-menthol: ratio of TRPM8 EC50 values, menthol = 1.0
T2 construct: host or cells: CHO cells
T2 sequence (Q7Z2W7 whole entry): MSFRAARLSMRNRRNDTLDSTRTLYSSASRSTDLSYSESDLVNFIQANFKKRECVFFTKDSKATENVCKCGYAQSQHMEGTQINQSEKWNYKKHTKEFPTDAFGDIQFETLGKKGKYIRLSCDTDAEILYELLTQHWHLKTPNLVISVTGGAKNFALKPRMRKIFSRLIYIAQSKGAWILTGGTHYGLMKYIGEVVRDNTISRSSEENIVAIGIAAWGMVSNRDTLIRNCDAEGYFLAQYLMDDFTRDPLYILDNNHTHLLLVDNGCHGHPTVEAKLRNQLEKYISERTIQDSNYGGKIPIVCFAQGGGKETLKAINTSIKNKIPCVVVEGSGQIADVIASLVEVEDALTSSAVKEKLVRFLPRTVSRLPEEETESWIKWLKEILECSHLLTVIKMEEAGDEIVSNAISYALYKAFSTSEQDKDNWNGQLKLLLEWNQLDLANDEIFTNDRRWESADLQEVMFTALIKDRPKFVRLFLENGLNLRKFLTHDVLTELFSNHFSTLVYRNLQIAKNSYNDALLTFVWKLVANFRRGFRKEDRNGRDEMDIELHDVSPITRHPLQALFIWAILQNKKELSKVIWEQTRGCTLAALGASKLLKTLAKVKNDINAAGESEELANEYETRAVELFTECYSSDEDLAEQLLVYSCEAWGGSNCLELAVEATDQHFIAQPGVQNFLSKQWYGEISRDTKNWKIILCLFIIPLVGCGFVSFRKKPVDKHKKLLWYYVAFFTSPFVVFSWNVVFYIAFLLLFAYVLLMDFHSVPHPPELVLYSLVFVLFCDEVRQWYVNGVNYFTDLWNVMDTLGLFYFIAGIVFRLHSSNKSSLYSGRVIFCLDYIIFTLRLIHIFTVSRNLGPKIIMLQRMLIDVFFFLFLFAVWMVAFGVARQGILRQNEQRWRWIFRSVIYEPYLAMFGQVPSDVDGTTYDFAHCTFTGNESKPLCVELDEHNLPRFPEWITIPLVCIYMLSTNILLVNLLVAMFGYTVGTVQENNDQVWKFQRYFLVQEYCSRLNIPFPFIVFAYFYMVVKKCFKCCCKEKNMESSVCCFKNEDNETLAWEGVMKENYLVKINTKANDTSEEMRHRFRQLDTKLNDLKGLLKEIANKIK
Text: FIG. 4. Agonist activities of TRPM8 analogs. […] The relative fluorescence (RF) unit on the ordinate represents calcium entry into transfected cells. […] The structures of these compounds are in Table 4.
The applicant has synthesized and examined a series of p-menthanecarboxamides conjugated to amino acid esters. […] This class of molecules is called N-alkylcarbonyl-amino acid esters. GlyOiPr is a p-menthanecarboxamide conjugate of glycine isopropyl (iPr) ester. It is similar in structure to WS-5, a cooling agent used as a food additive. WS-5 is the p-menthane-glycine ethyl (Et) ester, or GlyOEt. […] These in vitro effects were measured in CHO cells transfected with the hTRPM8 channel. Receptor activity was quantified using a Fluo-8 calcium kit and a Fluorescence Imaging Plate Reader ([…]™).

[3] = tested on: philtrum skin; test: Cooling duration bioassay on philtrum skin; format: in vivo, human
Text: (§1) FIG. 1. Comparison of cooling duration of various p-menthanecarboxamide analogs on philtrum skin versus ocular margins. The philtrum skin is keratinized, but the ocular margins are not. The test substances numbered 1 to 11 are: D-Ala-OiPr, Gly-OiPr, D-Ala-OEt, D-Ala-OMe, D-Ala-GlynPr, GlynPr, D-Ala-OnBu, GlynBu, GlyOEt, L-Ala-OEt, and N-Me-D-Ala-OEt, respectively. Two outliers (1 and 2) were identified as preferred embodiments because they preferentially cool the ocular margins. The nasal cavity surfaces like the ocular margins are not keratinized.
(§2) Cooling agents have been assayed in various ways depending on intended use. For example, for the skin the test substance can be applied on philtrum skin, using descriptions of coolness on a scale of 0 to 3. For the ocular surface, the active ingredient can be applied to the closed eyelids using a wipe. In the oral cavity, drug applications are on the posterior dorsal surface of the tongue. For the oropharyngeal surface, the cooling agent may be applied as an orally disintegrating tablet. The ability of a cooling agent to antagonize a noxious stimuli may also be tested, using nociception from citric acid or chili pepper sauce. Responses are usually measured using a Visual Analog Scale with a numerical rating. For nasal responses, however, such procedures have not been standardized. Some endpoints to consider are open and comfortable breathing, the presence or absence of sniffles, and the secretion of phlegm.

[4] = tested on: ocular margins; test: Cooling duration bioassay on eyelids/ocular margins; format: in vivo, human; settings: for Eyelids/Ocular Surface: Table 6, cooling duration, non-keratinized; for Ocular Surface: Table 7, Gly esters
Text: as §1, §2

[5] = tested on: oral cavity; test: Chili-pepper sauce test (oral cavity); format: in vivo, human; parameters: scale not given here; settings: Table 6; grades 0, +, ++ without key
Text: as §2

[6] = tested on: oropharyngeal surface; test: Bioassay on oropharyngeal surface; format: in vivo, human; settings: Table 7; grades 0, ++ without key
Text: as §2

[7] = tested on: nasal mucus secretion; test: Range-finding study of CPS-125, Up-Down method, nasal mucus secretion as endpoint; format: in vivo, human
Text: The recognition that inhibition of mucus hypersecretion might be a valuable and unique pharmacological attribute of TRPM8 agonists prompted the applicant to re-examine such compounds in his inventory. CPS-125 was described by Wei in U.S. Pat. No. 7,417,048 (August 2008), and its structure is in Table 10. This molecule incorporates a sulfamoyl group to increase water solubility and is sulfadiazine coupled to p-menthanecarboxamide. In a range-finding study, CPS-125 was suspended in 1% Ethanol/2% Polysorbate 80/saline and titrated using the Up-Down method of Dixon (Annu. Rev. Pharmacol. Toxicol. 20:441-462.1980) with nasal mucus secretion as the endpoint. The effective concentration for reducing secretions by +80% was 8 mg/ml of CPS-125. […] Such heterocyclic structures include pyrrole, furan, oxane, thiophene, thioxazole, and oxazole derivatives.
CPS-125 was active when administered as drops or in a manually activated spray. The nose is pinched and released after instilling 0.3 to 0.5 mL into the nostrils. After pinch and release, the reflex sniff or snort enhances delivery of the drops to the ostiomeatal complex. Using a power-assisted nebulizer enhances delivery of CPS-125. CPS-125's molecular weight of 416 Daltons is the highest of the tested compounds. Normally, large lipophilic molecules are not expected to penetrate secretions to reach target. Apparently, the sulfamoyl group confers the qualities of penetration, stability, and retention to make it a viable lead candidate for inhibition of mucus hypersecretion.

[8] = Table 6, cooling duration, keratinized skin

T1 sequence (Q8NER1 whole entry, species assumed): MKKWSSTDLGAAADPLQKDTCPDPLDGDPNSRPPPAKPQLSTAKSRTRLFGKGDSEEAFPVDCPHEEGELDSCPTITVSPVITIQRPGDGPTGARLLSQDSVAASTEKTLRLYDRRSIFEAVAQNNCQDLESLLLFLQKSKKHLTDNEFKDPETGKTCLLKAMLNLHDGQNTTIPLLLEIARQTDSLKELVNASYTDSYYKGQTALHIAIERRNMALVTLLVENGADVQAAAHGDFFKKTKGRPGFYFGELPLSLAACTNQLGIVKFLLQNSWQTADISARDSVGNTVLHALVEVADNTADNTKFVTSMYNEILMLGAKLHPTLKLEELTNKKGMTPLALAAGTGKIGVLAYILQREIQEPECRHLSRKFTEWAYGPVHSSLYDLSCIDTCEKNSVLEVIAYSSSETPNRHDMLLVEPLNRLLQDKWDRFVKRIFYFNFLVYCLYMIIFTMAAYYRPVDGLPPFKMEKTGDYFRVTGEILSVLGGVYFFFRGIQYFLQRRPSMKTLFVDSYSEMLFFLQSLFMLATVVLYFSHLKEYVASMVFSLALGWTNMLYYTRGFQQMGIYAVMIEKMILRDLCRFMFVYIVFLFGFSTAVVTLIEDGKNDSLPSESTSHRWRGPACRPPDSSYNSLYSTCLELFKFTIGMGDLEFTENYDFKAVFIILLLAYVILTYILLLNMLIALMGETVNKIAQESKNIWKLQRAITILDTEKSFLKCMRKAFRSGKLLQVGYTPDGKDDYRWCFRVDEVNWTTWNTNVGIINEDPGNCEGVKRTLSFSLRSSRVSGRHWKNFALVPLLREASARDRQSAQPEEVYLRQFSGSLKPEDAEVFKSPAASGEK

| SMILES | Response of cells transfected with TRPV1 [1] | Potency Relative to L-menthol [2] | Philtrum Skin [3, 8] [min] | Philtrum Skin ([3]; Table 7, Gly esters) [min] | Eyelids/Ocular Surface [4] [min] | Ocular Surface [4] [min] | Increase of cooling on raising the concentration ([4]; from 1 mg/ml to 2 mg/ml) [min] | Increase of cooling on raising the concentration ([4]; from 1 mg/ml to 5 mg/ml) [min] | Chili-Pepper Sauce Test [5] | Oropharyngeal Surface [6] | Activity when administered as drops or in a manually activated spray ([7]; 0.3 to 0.5 mL into the nostrils, pinch and release) | Duration of action among the 25+ compounds tested ([7]; in vivo) | Effective concentration for reducing secretions by +80% ([7]; suspended in 1% Ethanol/2% Polysorbate 80/saline, Up-Down method of Dixon) [mg/mL] | pEC50 ([2]; CHO cells transfected with hTRPM8, Fluo-8 calcium kit, FLIPR) |
| --- | --- | --- | --- | --- | --- | --- | --- | --- | --- | --- | --- | --- | --- | --- |
| COc1cc(CNC(=O)CCCC/C=C/C(C)C)ccc1O [capsaicin, reference compound] | respond | – | – | – | – | – | – | – | – | – | – | – | – | – |
| CCOC(=O)CNC(=O)[C@@H]1C[C@H](C)CC[C@H]1C(C)C [GlyOEt, [((1R,2S,5R)-2-isopropyl-5-methyl-cyclohexanecarbonyl)-amino]-acetic acid ethyl ester, reference compound] | – | 10.6 | 24 | 24 | 15 | 15 | 15 | 22 | 0 | 0 | – | – | – | – |
| CC(C)[C@@H]1CC[C@@H](C)C[C@H]1C(=O)Nc1ccc(S(=O)(=O)Nc2ncccn2)cc1 [CPS-125, (1R,2S,5R)-2-Isopropyl-5-methyl-cyclohexanecarboxylic acid [4-(pyrimidin-2-ylsulfamoyl)-phenyl]-amide] | – | – | – | – | – | – | – | – | – | – | active | longest duration of action | 8 | – |
| CCCCOC(=O)CNC(=O)[C@@H]1C[C@H](C)CC[C@H]1C(C)C [GlyOnBu, [((1R,2S,5R)-2-isopropyl-5-methyl-cyclohexanecarbonyl)-amino]-acetic acid n-butyl ester] | – | 2.8 | 38 | 38 | 35 | 35 | – | – | 0 | 0 | – | – | – | 5.87 |
